Results: patent publication US6518243B1, “Desleucyl glycopeptide antibiotics and methods of making same” (Trustees of Princeton University, priority 1999, dated 2003)

Legend:
E. Faecalis CL 4877 = experiment: MIC determination in BHI media, OD600; assay type: cell-based; conditions: BHI + 0.1% casamino acids, 18 hours at 37° C., ≧90% OD600 inhibition
How it was run: (§1)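 Log-phase bacteria were diluted to about 5×10^5 CFU/ml and exposed to test compounds serially diluted in DMSO. Following 18 hours at 37° C, growth was read by plate absorbance to assign the MIC.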

E. faecium CL 4931 = experiment: MIC determination in BHI media, OD600; assay type: cell-based; conditions: BHI + 0.1% casamino acids, 18 hours at 37° C., ≧90% OD600 inhibition
How it was run: as §1

[1] = test system: S. epidermidis (ATCC 12228); experiment: Zone of inhibition screen, 96 well agar array format; assay type: cell-based; parameters: scale not given here; conditions: zone of inhibition relative to 1 mg/ml stock solution of p-chlorobiphenylvancomycin
How it was run: (§2)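 Each compound was tested for antibacterial activity against a shared bacterial panel, with screening carried out on agar in a 96-well array.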

E. faecalis (CL 4877) = experiment: as above; assay type: cell-based; parameters: scale not given here; conditions: zone of inhibition relative to 1 mg/ml stock solution of p-chlorobiphenylvancomycin
How it was run: as §2

S. aureus (ATCC 29213) = experiment: as above; assay type: cell-based; parameters: scale not given here; conditions: zone of inhibition relative to 1 mg/ml stock solution of p-chlorobiphenylvancomycin
How it was run: as §2

S aureus ATCC 29213 = experiment: MIC determination in BHI media, OD600; assay type: cell-based; conditions: BHI + 0.1% casamino acids, 18 hours at 37° C., ≧90% OD600 inhibition
How it was run: as §1

E. faecalis ATCC 29212 = experiment: MIC determination in BHI media, OD600; assay type: cell-based; conditions: BHI + 0.1% casamino acids, 18 hours at 37° C., ≧90% OD600 inhibition
How it was run: as §1

S. Aureus ATCC 33591 = experiment: MIC determination in BHI media, OD600; assay type: cell-based; conditions: BHI + 0.1% casamino acids, 18 hours at 37° C., ≧90% OD600 inhibition
How it was run: as §1

E. faecium ATCC 49624 = experiment: MIC determination in BHI media, OD600; assay type: cell-based; conditions: BHI + 0.1% casamino acids, 18 hours at 37° C., ≧90% OD600 inhibition
How it was run: as §1

E. faceium (ATCC 49624) = experiment: Zone of inhibition screen, 96 well agar array format;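 note: score 3 means fourfold and score 4 sixteenfold the reference zone size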; assay type: cell-based, E. faecium; conditions: zone of inhibition relative to 1 mg/ml stock solution of p-chlorobiphenylvancomycin
How it was run: as §2

Row | Compound | MIC E. faecalis CL 4877 (E. Faecalis CL 4877) | MIC E. faecium CL 4931 (E. faecium CL 4931) | MIC S. aureus ATCC 29213 (S aureus ATCC 29213) | MIC E. faecalis ATCC 29212 (E. faecalis ATCC 29212) | MIC S. aureus ATCC 33591 (S. Aureus ATCC 33591) | MIC E. faecium ATCC 49624 (E. faecium ATCC 49624) | zone score, S. epidermidis ATCC 12228 [1] | zone score, E. faecalis CL 4877 (E. faecalis (CL 4877)) | zone score, S. aureus ATCC 29213 (S. aureus (ATCC 29213)) | zone score, E. faecium ATCC 49624 (E. faceium (ATCC 49624))
1 | CC1OC(OC2C(Oc3c4cc5cc3Oc3ccc(cc3Cl)C(O)C3NC(=O)C(NC(=O)C5NC(=O)C(CC(N)=O)NC(=O)C(NC(=O)C(N)CC[S+](C)[O-])C(O)c5ccc(c(Cl)c5)O4)c4ccc(O)c(c4)-c4c(O)cc(O)cc4C(C(=O)O)NC3=O)OC(CO)C(O)C2O)CC(C)(NCc2ccc(-c3ccc(Cl)cc3)cc2)C1O (centres unmarked) [Compound 81] | 25 µg/mL | 25 µg/mL | 0.78 µg/mL | – | – | 0.78 µg/mL | 2 | – | – | 2
2 | CN[C@H](CC(C)C)C(=O)N[C@H]1C(=O)N[C@@H](CC(N)=O)C(=O)N[C@H]2C(=O)N[C@H]3C(=O)N[C@H](C(=O)N[C@@H](C(=O)O)c4cc(O)cc(O)c4-c4cc3ccc4O)[C@H](O)c3ccc(c(Cl)c3)Oc3cc2cc(c3O[C@@H]2O[C@H](CI)[C@@H](O)[C@H](O)[C@H]2O[C@@H]2C[C@@](C)(NCc3ccc(-c4ccc(Cl)cc4)cc3)[C@@H](O)[C@@H](C)O2)Oc2ccc(cc2Cl)[C@H]1O [Compound 519] | > 25 µg/mL | > 25 µg/mL | – | – | – | 0.78 µg/mL | – | – | – | –
3 | CC1OC(OC2C(Oc3c4cc5cc3Oc3ccc(cc3Cl)C(O)C3NC(=O)C(NC(=O)C5NC(=O)C(CC(N)=O)NC(=O)C(NC(=O)C(N)CCCCNC=O)C(O)c5ccc(c(Cl)c5)O4)c4ccc(O)c(c4)-c4c(O)cc(O)cc4C(C(=O)O)NC3=O)OC(CO)C(O)C2O)CC(C)(NCc2ccc(-c3ccc(Cl)cc3)cc2)C1O (centres unmarked) [Compound 79] | 25 µg/mL | 25 µg/mL | – | – | – | 0.78 µg/mL | – | – | 2 | 2
4 | CN[C@H](CC(C)C)C(=O)N[C@H]1C(=O)N[C@@H](CC(N)=O)C(=O)N[C@H]2C(=O)N[C@H]3C(=O)N[C@H](C(=O)N[C@H](C(=O)O)c4cc(O)cc(O)c4-c4cc3ccc4O)[C@H](O)c3ccc(c(Cl)c3)Oc3cc2cc(c3O[C@@H]2O[C@H](CO)[C@@H](O)[C@H](O)[C@H]2O[C@H]2C[C@](C)(N)[C@H](O)[C@H](C)O2)Oc2ccc(cc2Cl)[C@H]1O [Compound 0, Vancomycin, reference compound] | > 250 µg/mL | > 250 µg/mL | 1.25 µg/mL | – | 2.5 µg/mL | 1.25 µg/mL | – | – | – | –
5 | C[C@H]1O[C@H](O[C@H]2[C@H](Oc3c4cc5cc3Oc3ccc(cc3Cl)[C@@H](O)[C@@H](NC(=O)[C@H](N)COC(C)(C)C)C(=O)N[C@@H](CC(N)=O)C(=O)N[C@H]5C(=O)N[C@H]3C(=O)N[C@H](C(=O)N[C@@H](C(=O)O)c5cc(O)cc(O)c5-c5cc3ccc5O)[C@H](O)c3ccc(c(Cl)c3)O4)O[C@H](CO)[C@@H](O)[C@@H]2O)C[C@@](C)(NCc2ccc(-c3ccc(Cl)cc3)cc2)[C@H]1O [Compound 17] | 3.91 µg/mL | – | 0.062 µg/mL | 0.25 µg/mL | 0.12 µg/mL | 0.062 µg/mL | – | – | – | –
6 | C[C@H](OC(C)(C)C)[C@@H](N)C(=O)N[C@H]1C(=O)N[C@@H](CC(N)=O)C(=O)N[C@H]2C(=O)N[C@H]3C(=O)N[C@H](C(=O)N[C@@H](C(=O)O)c4cc(O)cc(O)c4-c4cc3ccc4O)[C@H](O)c3ccc(c(Cl)c3)Oc3cc2cc(c3O[C@@H]2O[C@H](CO)[C@@H](O)[C@H](O)[C@H]2O[C@@H]2C[C@@](C)(NCc3ccc(-c4ccc(Cl)cc4)cc3)[C@@H](O)[C@@H](C)O2)Oc2ccc(cc2Cl)[C@H]1O [Compound 18] | 25 µg/mL | 25 µg/mL | 0.78 µg/mL | – | 0.78 µg/mL | 0.25 µg/mL | – | – | 2 | 2
7 | C[C@H]1O[C@H](O[C@H]2[C@H](Oc3c4cc5cc3Oc3ccc(cc3Cl)[C@@H](O)[C@@H](NC(=O)[C@@H]3CC(OC(C)(C)C)CN3)C(=O)N[C@@H](CC(N)=O)C(=O)N[C@H]5C(=O)N[C@H]3C(=O)N[C@H](C(=O)N[C@@H](C(=O)O)c5cc(O)cc(O)c5-c5cc3ccc5O)[C@H](O)c3ccc(c(Cl)c3)O4)O[C@H](CO)[C@@H](O)[C@@H]2O)C[C@@](C)(NCc2ccc(-c3ccc(Cl)cc3)cc2)[C@H]1O (some centres unmarked) [Compound 30] | 25 µg/mL | 25 µg/mL | – | – | – | 0.78 µg/mL | – | – | – | 2

Further lines, with some results ahead:

Row | MIC E. faecalis CL 4877 (E. Faecalis CL 4877) | MIC E. faecium CL 4931 (E. faecium CL 4931) | MIC S. aureus ATCC 29213 (S aureus ATCC 29213) | MIC E. faecalis ATCC 29212 (E. faecalis ATCC 29212) | MIC S. aureus ATCC 33591 (S. Aureus ATCC 33591) | MIC E. faecium ATCC 49624 (E. faecium ATCC 49624) | Compound | zone score, S. epidermidis ATCC 12228 [1] | zone score, E. faecalis CL 4877 (E. faecalis (CL 4877)) | zone score, S. aureus ATCC 29213 (S. aureus (ATCC 29213)) | zone score, E. faecium ATCC 49624 (E. faceium (ATCC 49624))
8 | 25 µg/mL | 25 µg/mL | – | – | – | – | C[C@H](O)C(=O)N[C@H]1C(=O)N[C@@H](CC(N)=O)C(=O)N[C@H]2C(=O)N[C@H]3C(=O)N[C@H](C(=O)N[C@@H](C(=O)O)c4cc(O)cc(O)c4-c4cc3ccc4O)[C@H](O)c3ccc(c(Cl)c3)Oc3cc2cc(c3O[C@@H]2O[C@H](CO)[C@@H](O)[C@H](O)[C@H]2O[C@@H]2C[C@@](C)(NCc3ccc(-c4ccc(Cl)cc4)cc3)[C@@H](O)[C@@H](C)O2)Oc2ccc(cc2Cl)[C@H]1O [Compound 21] | 2 | 2 | 2 | –
9 | > 25 µg/mL | > 25 µg/mL | > 25 µg/mL | > 25 µg/mL | > 25 µg/mL | > 25 µg/mL | CC1OC(OC2C(Oc3c4cc5cc3Oc3ccc(cc3Cl)C(O)C3NC(=O)C(NC(=O)C5NC(=O)C(CC(N)=O)NC(=O)C(N)C(O)c5ccc(c(Cl)c5)O4)c4ccc(O)c(c4)-c4c(O)cc(O)cc4C(C(=O)O)NC3=O)OC(CO)C(O)C2O)CC(C)(NCc2ccc(-c3ccc(Cl)cc3)cc2)C1O (centres unmarked) [Compound 522, Des-Lecyl Vancomycin, reference compound] | – | – | – | –
10 | 25 µg/mL | 25 µg/mL | – | – | – | 0.39 µg/mL | CC1OC(OC2C(Oc3c4cc5cc3Oc3ccc(cc3Cl)C(O)C3NC(=O)C(NC(=O)C5NC(=O)C(CC(N)=O)NC(=O)C(NC(=O)C(N)Cc5ccc(O)c([N+](=O)[O-])c5)C(O)c5ccc(c(Cl)c5)O4)c4ccc(O)c(c4)-c4c(O)cc(O)cc4C(C(=O)O)NC3=O)OC(CO)C(O)C2O)CC(C)(NCc2ccc(-c3ccc(Cl)cc3)cc2)C1O (centres unmarked) [Compound 557] | – | – | – | –
11 | > 25 µg/mL | > 25 µg/mL | 0.78 µg/mL | – | 0.78 µg/mL | – | CC1OC(OC2C(Oc3c4cc5cc3Oc3ccc(cc3Cl)C(O)C3NC(=O)C(NC(=O)C5NC(=O)C(CC(N)=O)NC(=O)C(NC(=O)CNC(=O)CNC(=O)c5ccc([N+](=O)[O-])cc5)C(O)c5ccc(c(Cl)c5)O4)c4ccc(O)c(c4)-c4c(O)cc(O)cc4C(C(=O)O)NC3=O)OC(CO)C(O)C2O)CC(C)(NCc2ccc(-c3ccc(Cl)cc3)cc2)C1O (centres unmarked) [Compound 108] | – | – | 2 | –
12 | 25 µg/mL | 25 µg/mL | 0.78 µg/mL | 0.78 µg/mL | 0.39 µg/mL | 0.39 µg/mL | C[C@H]1O[C@H](O[C@H]2[C@H](Oc3c4cc5cc3Oc3ccc(cc3Cl)[C@@H](O)[C@@H](NC(=O)[C@H](N)Cc3cccnc3)C(=O)N[C@@H](CC(N)=O)C(=O)N[C@H]5C(=O)N[C@H]3C(=O)N[C@H](C(=O)N[C@@H](C(=O)O)c5cc(O)cc(O)c5-c5cc3ccc5O)[C@H](O)c3ccc(c(Cl)c3)O4)O[C@H](CO)[C@@H](O)[C@@H]2O)C[C@@](C)(NCc2ccc(-c3ccc(Cl)cc3)cc2)[C@H]1O [Compound 556] | – | – | – | –
13 | 25 µg/mL | 25 µg/mL | 0.39 µg/mL | – | 0.39 µg/mL | 0.25 µg/mL | COCC(N)C(=O)NC1C(=O)NC(CC(N)=O)C(=O)NC2C(=O)NC3C(=O)NC(C(=O)NC(C(=O)O)c4cc(O)cc(O)c4-c4cc3ccc4O)C(O)c3ccc(c(Cl)c3)Oc3cc2cc(c3OC2OC(CO)C(O)C(O)C2OC2CC(C)(NCc3ccc(-c4ccc(Cl)cc4)cc3)C(O)C(C)O2)Oc2ccc(cc2Cl)C1O (centres unmarked) [Compound 525] | – | – | – | –
14 | 25 µg/mL | 25 µg/mL | 0.78 µg/mL | – | 0.78 µg/mL | 0.78 µg/mL | C[C@H](N)C(=O)N[C@H]1C(=O)N[C@@H](CC(N)=O)C(=O)N[C@H]2C(=O)N[C@H]3C(=O)N[C@H](C(=O)N[C@@H](C(=O)O)c4cc(O)cc(O)c4-c4cc3ccc4O)[C@H](O)c3ccc(c(Cl)c3)Oc3cc2cc(c3O[C@@H]2O[C@H](CO)[C@@H](O)[C@H](O)[C@H]2O[C@@H]2C[C@@](C)(NCc3ccc(-c4ccc(Cl)cc4)cc3)[C@@H](O)[C@@H](C)O2)Oc2ccc(cc2Cl)[C@H]1O [Compound 1] | – | – | – | 2
